pIC50: −log10 of the molar value.
Key:
RON (human) = RON (human) (Homo sapiens, UniProt Q04912); experiment: RON (human) AlphaScreen kinase assay, Km of ATP; assay type: biochemical; details: AlphaScreen, Km of ATP; read-out: RON biochemical IC50
How it was run: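 Reaction was started with enzyme and run 30 min at RT. PT66 donor/acceptor beads in an EDTA-containing Tris pH 7.5 buffer were then added, and the signal was read after 1 h.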

MET (human) = MET (human) (Homo sapiens, UniProt P08581); experiment: MET (human) AlphaScreen kinase assay, Km of ATP; assay type: biochemical; details: AlphaScreen, Km of ATP; read-out: Met biochemical IC50
Sequence of MET (human) (P08581 25-1390): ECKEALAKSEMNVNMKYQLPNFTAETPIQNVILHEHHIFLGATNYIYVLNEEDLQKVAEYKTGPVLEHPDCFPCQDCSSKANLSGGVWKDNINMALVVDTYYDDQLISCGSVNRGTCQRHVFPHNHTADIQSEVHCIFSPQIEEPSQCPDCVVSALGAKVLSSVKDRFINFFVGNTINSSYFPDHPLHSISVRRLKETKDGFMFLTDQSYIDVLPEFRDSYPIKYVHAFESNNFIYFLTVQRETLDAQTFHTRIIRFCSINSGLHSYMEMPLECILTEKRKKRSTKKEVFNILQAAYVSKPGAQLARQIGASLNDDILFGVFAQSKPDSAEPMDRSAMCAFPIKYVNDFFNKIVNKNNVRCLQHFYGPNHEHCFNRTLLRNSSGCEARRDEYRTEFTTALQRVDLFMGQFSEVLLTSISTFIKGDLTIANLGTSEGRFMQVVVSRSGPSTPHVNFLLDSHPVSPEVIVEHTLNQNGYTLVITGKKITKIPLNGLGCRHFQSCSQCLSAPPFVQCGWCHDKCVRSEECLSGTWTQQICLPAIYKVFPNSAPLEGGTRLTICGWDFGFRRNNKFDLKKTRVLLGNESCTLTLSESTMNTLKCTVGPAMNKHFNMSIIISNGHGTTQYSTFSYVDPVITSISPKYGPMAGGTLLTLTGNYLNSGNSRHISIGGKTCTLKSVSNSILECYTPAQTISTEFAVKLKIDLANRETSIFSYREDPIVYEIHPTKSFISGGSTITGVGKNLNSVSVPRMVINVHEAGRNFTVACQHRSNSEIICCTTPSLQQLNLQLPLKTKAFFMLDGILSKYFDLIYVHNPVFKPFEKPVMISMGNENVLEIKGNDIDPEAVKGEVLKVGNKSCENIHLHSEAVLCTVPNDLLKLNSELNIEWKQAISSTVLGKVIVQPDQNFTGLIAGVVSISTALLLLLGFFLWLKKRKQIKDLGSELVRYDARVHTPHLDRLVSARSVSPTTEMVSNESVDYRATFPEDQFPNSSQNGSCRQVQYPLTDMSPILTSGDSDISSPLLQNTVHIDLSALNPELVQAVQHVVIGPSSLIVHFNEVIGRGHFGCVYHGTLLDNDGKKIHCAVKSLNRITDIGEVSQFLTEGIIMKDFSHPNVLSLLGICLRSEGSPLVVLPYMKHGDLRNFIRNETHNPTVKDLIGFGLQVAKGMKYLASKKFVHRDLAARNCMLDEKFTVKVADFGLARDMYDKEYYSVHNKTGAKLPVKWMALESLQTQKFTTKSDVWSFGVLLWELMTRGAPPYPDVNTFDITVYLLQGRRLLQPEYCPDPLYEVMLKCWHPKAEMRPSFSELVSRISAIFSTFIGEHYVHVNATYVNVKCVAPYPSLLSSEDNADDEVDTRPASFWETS
How it was run: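 Human MET at lot-optimised concentration in 50 mM Tris pH 7.4 buffer with 1 mM DTT, compound at 1% DMSO final; enzyme starts the reaction, 60 min at RT.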

Sequence of RON (human) (Q04912 25-1400): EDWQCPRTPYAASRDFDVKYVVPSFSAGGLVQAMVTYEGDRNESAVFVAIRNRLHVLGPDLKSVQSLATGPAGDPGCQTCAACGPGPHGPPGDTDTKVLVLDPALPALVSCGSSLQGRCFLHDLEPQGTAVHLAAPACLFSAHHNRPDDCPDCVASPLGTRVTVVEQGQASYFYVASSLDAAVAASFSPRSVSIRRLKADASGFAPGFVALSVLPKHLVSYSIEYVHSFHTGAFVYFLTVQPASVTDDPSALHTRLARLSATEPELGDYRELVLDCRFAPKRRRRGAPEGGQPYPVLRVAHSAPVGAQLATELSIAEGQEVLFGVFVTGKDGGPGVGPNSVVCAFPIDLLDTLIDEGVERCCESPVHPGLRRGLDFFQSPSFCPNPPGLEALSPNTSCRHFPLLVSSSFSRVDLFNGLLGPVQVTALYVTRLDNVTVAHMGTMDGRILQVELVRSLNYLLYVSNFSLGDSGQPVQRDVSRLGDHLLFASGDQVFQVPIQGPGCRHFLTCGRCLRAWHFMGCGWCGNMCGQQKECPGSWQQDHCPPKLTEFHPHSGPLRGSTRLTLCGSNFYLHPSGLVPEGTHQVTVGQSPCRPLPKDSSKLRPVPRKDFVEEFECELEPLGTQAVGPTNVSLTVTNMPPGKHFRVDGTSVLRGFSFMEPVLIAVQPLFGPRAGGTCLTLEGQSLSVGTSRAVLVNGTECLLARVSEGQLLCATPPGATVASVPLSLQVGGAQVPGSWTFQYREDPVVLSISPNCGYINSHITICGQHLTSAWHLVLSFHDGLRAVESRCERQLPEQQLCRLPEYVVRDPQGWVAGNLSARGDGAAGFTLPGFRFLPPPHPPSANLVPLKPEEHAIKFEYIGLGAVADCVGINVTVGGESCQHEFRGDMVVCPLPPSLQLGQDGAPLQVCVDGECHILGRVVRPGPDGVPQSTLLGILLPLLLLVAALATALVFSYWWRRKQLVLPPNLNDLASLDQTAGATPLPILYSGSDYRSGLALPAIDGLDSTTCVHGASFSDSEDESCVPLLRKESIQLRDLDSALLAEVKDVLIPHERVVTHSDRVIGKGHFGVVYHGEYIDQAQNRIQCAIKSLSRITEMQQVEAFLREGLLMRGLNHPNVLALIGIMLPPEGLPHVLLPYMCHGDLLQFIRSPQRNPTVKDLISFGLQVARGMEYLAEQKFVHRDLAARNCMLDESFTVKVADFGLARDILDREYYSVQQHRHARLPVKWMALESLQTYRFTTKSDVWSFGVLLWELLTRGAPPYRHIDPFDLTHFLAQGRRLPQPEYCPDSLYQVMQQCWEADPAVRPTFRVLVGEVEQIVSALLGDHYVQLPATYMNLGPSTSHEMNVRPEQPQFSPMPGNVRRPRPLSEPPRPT

Compound | pIC50 (RON (human)) | pIC50 (MET (human))
C[C@@H](Oc1c(N)ncc2c(-c3ccc(C(=O)NCC(C)(C)CN(C)C)cc3)coc12)c1c(Cl)ccc(F)c1Cl [Example 298, 4-{6-Amino-7-[(R)-1-(2,6-dichloro-3-fluorophenyl)ethoxy]furo[3,2-c]pyridin-3-yl}-N-(3-dimethylamino-2,2-dimethylpropyl)benzamide] | 5.30 to 6.30 | > 6.30
C[C@@H](Oc1c(N)ncc2c(-c3ccc(C(=O)N4CCC(O)C4)cc3)coc12)c1c(Cl)ccc(F)c1Cl (stereo partly drawn) [Example 299] | 5.30 to 6.30 | 5.30 to 6.30
C[C@@H](Oc1c(N)ncc2c(-c3ccc(C(=O)N4CCN(CC(=O)N(C)C)CC4)cc3)coc12)c1c(Cl)ccc(F)c1Cl [Example 300, 2-[4-(4-{6-Amino-7-[(R)-1-(2,6-dichloro-3-fluorophenyl)ethoxy]furo[3,2-c]pyridin-3-yl}benzoyl)piperazin-1-yl]-N,N-dimethylacetamide] | 5.30 to 6.30 | 5.30 to 6.30
C[C@@H](Oc1c(N)ncc2c(-c3ccc(C(=O)N4CCN(CCOCCO)CC4)cc3)coc12)c1c(Cl)ccc(F)c1Cl [Example 301, (4-{6-Amino-7-[(R)-1-(2,6-dichloro-3-fluoro-phenyl)ethoxy]furo[3,2-c]pyridin-3-yl}phenyl)-{4-[2-(2-hydroxyethoxy)ethyl]piperazin-1-yl}methanone] | 5.30 to 6.30 | 5.30 to 6.30
C[C@@H](Oc1c(N)ncc2c(-c3csc(C=O)c3)coc12)c1c(Cl)ccc(F)c1Cl [Example 302, 4-{6-Amino-7-[(R)-1-(2,6-dichloro-3-fluorophenyl)ethoxy]furo[3,2-c]pyridin-3-yl}thiophene-2-carbaldehyde] | 5.30 to 6.30 | 5.30 to 6.30
C[C@@H](Oc1c(N)ncc2c(-c3csc(CN(C)C)c3)coc12)c1c(Cl)ccc(F)c1Cl [Example 303, 7-[(R)-1-(2,6-Dichloro-3-fluorophenyl)ethoxy]-3-(5-dimethyl-aminomethylthiophen-3-yl)furo[3,2-c]pyridin-6-ylamine] | > 6.30 | > 6.30
C[C@@H](Oc1c(N)ncc2c(-c3csc(CN4CCN(C)CC4)c3)coc12)c1c(Cl)ccc(F)c1Cl [Example 304, 7-[(R)-1-(2,6-Dichloro-3-fluorophenyl)ethoxy]-3-[5-(4-methyl-piperazin-1-ylmethyl)thiophen-3-yl]-furo[3,2-c]pyridin-6-ylamine] | > 6.30 | > 6.30
C[C@@H]1CN(Cc2cc(-c3coc4c(O[C@H](C)c5c(Cl)ccc(F)c5Cl)c(N)ncc34)cs2)C[C@H](C)N1 [Example 305, 7-[(R)-1-(2,6-Dichloro-3-fluorophenyl)ethoxy]-3-[5-(cis-3,5-dimethylpiperazin-1-ylmethyl)thiophen-3-yl]-furo[3,2-c]pyridin-6-ylamine] | > 6.30 | > 6.30
C[C@@H](Oc1c(N)ncc2c(-c3csc(CN4CCC(O)CC4)c3)coc12)c1c(Cl)ccc(F)c1Cl [Example 306, 1-(4-{6-Amino-7-[(R)-1-(2,6-dichloro-3-fluorophenyl)ethoxy]furo[3,2-c]pyridin-3-yl}thiophen-2-ylmethyl)piperidin-4-ol] | > 6.30 | > 6.30
C[C@@H](Oc1c(N)ncc2c(-c3csc(CN4CCC(O)C4)c3)coc12)c1c(Cl)ccc(F)c1Cl (stereo partly drawn) [Example 307, 1-(4-{6-Amino-7-[(R)-1-(2,6-dichloro-3-fluorophenyl)-ethoxy]furo[3,2-c]pyridin-3-yl}thiophen-2-ylmethyl)pyrrolidin-3-ol] | > 6.30 | > 6.30
C[C@@H](Oc1c(N)ncc2c(-c3csc(CN4CCCC4)c3)coc12)c1c(Cl)ccc(F)c1Cl [Example 308, 7-[(R)-1-(2,6-Dichloro-3-fluorophenyl)ethoxy]-3-(5-pyrrolidin-1-ylmethylthiophen-3-yl)furo[3,2-c]pyridin-6-ylamine] | > 6.30 | > 6.30
C[C@@H](Oc1c(N)ncc2c(-c3csc(CN4CCC4)c3)coc12)c1c(Cl)ccc(F)c1Cl [Example 309, 3-(5-Azetidin-1-ylmethylthiophen-3-yl)-7-[(R)-1-(2,6-dichloro-3-fluorophenyl)ethoxy]furo[3,2-c]pyridin-6-ylamine] | > 6.30 | > 6.30
C[C@@H](Oc1c(N)ncc2c(-c3csc(CN)c3)coc12)c1c(Cl)ccc(F)c1Cl [Example 310, 3-(5-Aminomethylthiophen-3-yl)-7-[(R)-1-(2,6-dichloro-3-fluoro-phenyl)ethoxy]furo[3,2-c]pyridin-6-ylamine] | > 6.30 | > 6.30
C[C@@H](Oc1c(N)ncc2c(-c3csc(C(=O)O)c3)coc12)c1c(Cl)ccc(F)c1Cl [Example 311, 4-{6-Amino-7-[(R)-1-(2,6-dichloro-3-fluorophenyl)ethoxy]furo[3,2-c]pyridin-3-yl}thiophene-2-carboxylic acid] | 5.30 to 6.30 | > 6.30
CC(C)NC(=O)c1cc(-c2coc3c(O[C@H](C)c4c(Cl)ccc(F)c4Cl)c(N)ncc23)cs1 [Example 312, 4-{6-Amino-7-[(R)-1-(2,6-dichloro-3-fluorophenyl)ethoxy]furo[3,2-c]pyridin-3-yl}thiophene-2-carboxylic acid isopropylamide] | 5.30 to 6.30 | > 6.30
C[C@@H](Oc1c(N)ncc2c(-c3csc(C(=O)N4CCC(O)CC4)c3)coc12)c1c(Cl)ccc(F)c1Cl [Example 313, (4-{6-Amino-7-[(R)-1-(2,6-dichloro-3-fluorophenyl)ethoxy]-furo[3,2-c]pyridin-3-yl}-thiophen-2-yl)-(4-hydroxypiperidin-1-yl)methanone] | 5.30 to 6.30 | 5.30 to 6.30
CCNC(=O)c1cc(-c2coc3c(O[C@H](C)c4c(Cl)ccc(F)c4Cl)c(N)ncc23)cs1 [Example 314, 4-{6-Amino-7-[(R)-1-(2,6-dichloro-3-fluorophenyl)ethoxy]furo[3,2-c]pyridin-3-yl}-thiophene-2-carboxylic acid Ethylamide] | 5.30 to 6.30 | 5.30 to 6.30
C[C@@H](Oc1c(N)ncc2c(-c3csc(C(=O)NC(C)(C)C)c3)coc12)c1c(Cl)ccc(F)c1Cl [Example 315, 4-{6-Amino-7-[(R)-1-(2,6-dichloro-3-fluorophenyl)ethoxy]-furo[3,2-c]pyridin-3-yl}thiophene-2-carboxylic acid tert-butylamide] | 5.30 to 6.30 | > 6.30
C[C@@H](Oc1c(N)ncc2c(-c3csc(C(=O)N4CCN(C)CC4)c3)coc12)c1c(Cl)ccc(F)c1Cl [Example 316, (4-{6-Amino-7-[(R)-1-(2,6-dichloro-3-fluorophenyl)ethoxy]furo[3,2-c]pyridin-3-yl}thiophen-2-yl)-(4-methylpiperazin-1-yl)methanone] | > 6.30 | > 6.30
C[C@@H](Oc1c(N)ncc2c(-c3csc(C(=O)N(C)C)c3)coc12)c1c(Cl)ccc(F)c1Cl [Example 317, 4-{6-Amino-7-[(R)-1-(2,6-dichloro-3-fluorophenyl)ethoxy]furo[3,2-c]pyridin-3-yl}thiophene-2-carboxylic acid Dimethylamide] | 5.30 to 6.30 | 5.30 to 6.30
C[C@@H](Oc1c(N)ncc2c(-c3csc(C(N)=O)c3)coc12)c1c(Cl)ccc(F)c1Cl [Example 318, 4-{6-Amino-7-[(R)-1-(2,6-dichloro-3-fluorophenyl)ethoxy]furo[3,2-c]pyridin-3-yl}thiophene-2-carboxamide] | 5.30 to 6.30 | 5.30 to 6.30

From patent US8022206B2 (OSI Pharmaceuticals, LLC, priority 2008, dated 2011)
